What all share (format): biochemical
Assay [1] addresses T1, human CSNK1A1 (Homo sapiens (Human), UniProt P48729). Briefly: CSNK1A1 Assay 1 (ADP-Glo, 1 μM ATP). To be noted: read-out: CSNK1A1 Assay 1 IC50 [mol/l] (median). How it is done:
CSNK1A1-inhibitory activity of compounds of the present invention in presence of 1 μM adenosine-tri-phosphate (ATP) was quantified employing the CSNK1A1 assay as described in the following paragraphs. In essence, the enzyme activity is measured by quantification of the adenosine-di-phosphate (ADP), which is generated as a co-product of the enzyme reaction, via the “ADP-Glo™ Kinase Assay” kit from the company Promega. This detection system works as follows: In a first step the ATP not consumed in the kinase reaction is quantitatively converted to cAMP employing an adenylate cyclase (“ADP-Glo-reagent”), then the adenylate cyclase is stopped and the ADP generated in the kinase reaction converted to ATP which generates in a luciferase-based reaction a glow-luminescence signal (“Kinase Detection Reagent”). Recombinant fusion protein of N-terminal Glutathion-S-Transferase (GST) and full-length human CSNK1A1, expressed by baculovirus infected insect cells and purified via Glutathion affinity chromatography, was purchased from Life Technologies (product no. PV4174) and used as enzyme. As substrate for the kinase reaction the biotinylated peptide Btn-Ahx-[…] (C-terminus in amide form) was used which can be purchased e.g. from the company Biosyntan (Berlin-Buch, Germany).
For the assay 50 nl of a 100 fold concentrated solution of the test compound in DMSO was pipetted into a white 1536-well microtiter plate (Greiner Bio-One, Frickenhausen, Germany), 2 μL of a solution of CSNK1A1 in aqueous assay buffer [50 mM HEPES pH 7.5, 10% (v/v) glycerol, 10 mM MgCl2, 50 mM NaCl, 1 mM dithiothreitol, 0.01% (w/v) bovine serum albumin, 0.01% (v/v) Triton X-100] were added and the mixture was incubated for 15 min at 22° C. to allow pre-binding of the test compounds to the enzyme before the start of the kinase reaction. […] The concentration of CSNK1A1 was adjusted depending of the activity of the enzyme lot and was chosen appropriate to have the assay in the linear range, a typical concentration is 0.15 ng/μL. The reaction was stopped by the addition of 2.5 μL of “ADP-Glo-reagent” (1:1.5 fold diluted with water) and the resulting mixture was incubated at 22° C. for 1 h to convert the ATP not consumed in the kinase reaction completely […]. Subsequently 2.5 μL of the “kinase detection reagent” (1.2 fold more concentrated than recommended by the producer) were added, the resulting mixture was incubated at 22° C. for 1 h and then the luminescence measured with a suitable measurement instrument (e.g. Viewlux™ from Perkin-Elmer). The amount of emitted light was taken as a measure for the amount of ADP generated and thereby for the activity of the CSNK1A1.
(In general: ADP-Glo turns the ADP formed in a reaction into a luminescent signal.)

In assay [2] the target is T1, human CSNK1A1. The experiment in a line: CSNK1A1 Assay 2 (ADP-Glo, 1 μM ATP). Particulars: substrate biotin-Ahx-KRRRAL-pS-VASLPGL, read-out: CSNK1A1 Assay 2 IC50 [mol/l] (median). In short, it runs like this:
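Full-length human CSNK1A1 as an N-terminal GST fusion (baculovirus/insect cells) with biotinylated peptide substrate biotin-Ahx-KRRRAL-pS-VASLPGL and 1 μM ATP, in HEPES pH 7.5 buffer. Compounds were pre-incubated with enzyme (~0.0375 ng/μL) for 15 min at 22 °C. Generated ADP was read by ADP-Glo luminescence as the activity measure.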

The target in assay [3] is wild-type Epidermal Growth Factor Receptor (EGFR) (Homo sapiens (Human), UniProt P00533). Briefly: WT-EGFR Kinase Assay (TR-FRET, 2 mM ATP). (Time-resolved FRET reads energy transfer from a long-lived donor to a nearby acceptor.)
wild-type Epidermal Growth Factor Receptor (EGFR), sequence (P00533 669-1210): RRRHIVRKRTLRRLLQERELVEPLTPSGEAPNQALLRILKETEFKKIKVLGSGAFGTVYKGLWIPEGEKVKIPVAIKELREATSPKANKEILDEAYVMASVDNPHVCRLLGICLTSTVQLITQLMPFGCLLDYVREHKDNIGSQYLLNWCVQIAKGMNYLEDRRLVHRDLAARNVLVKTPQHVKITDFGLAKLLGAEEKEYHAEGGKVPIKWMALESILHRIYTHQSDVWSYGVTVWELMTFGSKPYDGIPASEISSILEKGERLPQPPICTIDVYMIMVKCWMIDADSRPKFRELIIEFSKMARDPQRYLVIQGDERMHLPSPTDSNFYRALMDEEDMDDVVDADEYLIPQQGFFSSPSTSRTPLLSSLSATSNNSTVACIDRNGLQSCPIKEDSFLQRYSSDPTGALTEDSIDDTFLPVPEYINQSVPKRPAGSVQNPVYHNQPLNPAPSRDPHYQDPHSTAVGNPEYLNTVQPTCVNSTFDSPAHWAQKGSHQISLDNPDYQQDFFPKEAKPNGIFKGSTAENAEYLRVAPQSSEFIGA
The mark [4] stands for this setting: EGFR Wildtyp- 2 mM ATP IC50 [mol/l] (median).
Where [5] appears, read: substrate Btn-Ahx-SGSEGDSESGEEEG
Where [6] appears, read: read-out: EGFR Wildtyp- 2 mM ATP IC50 [mol/l] (median).

The structures appear in SMILES notation. Where “and” joins values, the source holds several entries; their conditions need not be identical. Identical values can stand only once. Like-named read-outs stand apart in the source and are kept apart here. Where only a bound is given, the exact number is not on record here.

T1 sequence (P48729 whole entry): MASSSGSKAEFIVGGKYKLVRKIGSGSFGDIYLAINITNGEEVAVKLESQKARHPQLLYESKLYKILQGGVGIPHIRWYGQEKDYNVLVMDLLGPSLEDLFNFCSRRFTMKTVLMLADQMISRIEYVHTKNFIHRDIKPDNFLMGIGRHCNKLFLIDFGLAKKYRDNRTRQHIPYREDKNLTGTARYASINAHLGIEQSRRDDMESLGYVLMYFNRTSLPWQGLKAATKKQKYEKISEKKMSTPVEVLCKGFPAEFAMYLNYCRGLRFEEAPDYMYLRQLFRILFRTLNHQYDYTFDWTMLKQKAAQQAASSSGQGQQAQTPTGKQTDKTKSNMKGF

For `C[C@H](C(=O)Nc1cc(-c2[nH]c3c(c2Nc2ccccc2)C(=O)N(C)CC3)ccn1)c1ccc(F)cc1` (single isomer, unassigned) [Example 5], the IC50 on human CSNK1A1 [1] (substrate Btn-Ahx-[…]) worked out at 3.62 nM; at human CSNK1A1 [2], 4.45 nM.
On to `C[C@@H](C(=O)Nc1cc(-c2[nH]c3c(c2Nc2ccccc2)C(=O)N(C)CC3)ccn1)c1ccc(F)cc1` (single isomer, unassigned) [Example 6], for which the IC50 on human CSNK1A1 [1] (substrate Btn-Ahx-[…]) is 33.3 nM; at human CSNK1A1 [2], 44 nM; in assay [3] (setting [4]) it was 16.1 µM and 15.6 µM and 18.2 µM and > 20 µM (2×) and 15.9 µM and 17.1 µM.
For `CN1CCc2[nH]c(-c3ccnc(NC(=O)Cc4ccc(F)cc4)c3)c(Nc3ccccc3)c2C1=O` [Example 1, N-[4-(3-anilino-5-methyl-4-oxo-4,5,6,7-tetrahydro-1H-pyrrolo[3,2-c]pyridin-2-yl)pyridin-2-yl]-2-(4-fluorophenyl)acetamide], the IC50 turned out to be 2.54 nM at human CSNK1A1 [1] (setting [5]), 1.97 nM at human CSNK1A1 [2] and 1200 nM in assay [3] (setting [6]).
Take `CC(C(=O)Nc1cc(-c2[nH]c3c(c2Nc2ccccc2)C(=O)N(C)CC3)ccn1)c1ccc(F)cc1` (stereo not drawn) [Example 4, N-[4-(3-anilino-5-methyl-4-oxo-4,5,6,7-tetrahydro-1H-pyrrolo[3,2-c]pyridin-2-yl)pyridin-2-yl]-2-(4-fluorophenyl)propanamide]: the IC50 at human CSNK1A1 [1] (setting [5]) was 11.2 nM; at human CSNK1A1 [2] it was 5.49 nM; in assay [3] (setting [4]), 12600 nM and 11200 nM; in assay [3] (setting [6]), over 20000 nM.

Values taken from patent US12227501B2, “3-amino-2-[2-(acylamino)pyridin-4-yl]-1,5,6,7-tetrahydro-4h-pyrrolo[3,2-c]pyridin-4-one as CSNK1 inhibitors” (Bayer Aktiengesellschaft, priority 2019, dated 2025).
